Measured values: PubChem BioAssay AID179 (DTP/NCI, 2004)
“And” between values parts separate entries of the source, which are not always exact repeats. Equal entries are not always repeated. The source made the active and inactive calls.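 The calls were made as follows: active = compounds giving half or more protection of infected cells from virus-caused growth loss, again on retest; inactive = the rest.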

Test system: CEM cells HIV-1 protection, formazan growth assay
Experiment: NCI AIDS Antiviral Assay
Details: for IC50: measured here: growth of uninfected CEM cells
How it was run: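 Category rules: moderately active means at least 50% protection on retest, and confirmed active means 100% protection reproducibly. The underlying data came from a formazan growth assay in HIV-1-infected CEM cells.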

SMILES | EC50 [µM] | IC50 | outcome
CSc1nc(Nc2cccc(C(F)(F)F)c2)c2c(N)nn(C)c2n1 | > 200 | > 200 µM | –
CC(C)C(CCOS(=O)(=O)O)CCC(C)[C@H]1[C@@H](O)C(O)C2[C@]3(O)C[C@@H](O)C4(O)C[C@@H](O)CC[C@]4(C)C3CC[C@@]21C (some centres undefined) | – | – | inactive
O=C1CCCN(Cc2ccccc2)C(=O)N1 | > 1150 | > 1150 µM | –
COc1cc(NC(=O)c2ccc(NC(=O)c3ccc(N)cc3)cc2)c(OC)cc1N=Nc1ccc(N=Nc2ccc3cc(S(=O)(=O)O)cc(S(=O)(=O)O)c3c2)c(C)c1 | 19.5 | > 100 µM | –
CCOC(=O)CSc1nc(N)c2c(-c3ccc(OC)c(OC)c3)c3c(nc2n1)CCCC3 | > 200 | > 200 µM | –
CC(=O)OC1/C=C(\C)C(OC(C)=O)C/C=C(/C)CCC2C(/C=C/C1=O)C2(C)C (centres undefined) | > 66.1 | > 66.1 µM | –
COc1cc2c(oc(=O)c3cc4cc([Si](C)(C)C)oc4c(OC)c32)c2cccc(O)c12 | > 1.2 | > 1.2 µM | –
C=C1C(=O)OC2C1C(OC(=O)/C(=C/C)COC(C)=O)CC1(CO1)C1C(OC(=O)/C(=C/C)CO)C=C(C)C21 (centres undefined) | – | – | inactive
CC(C)N1CN(C(C(=O)N[C@@H]2C(=O)N3C2SC(C)(C)C3C(=O)O)c2ccccc2)CSC1=S (some centres undefined) | > 257 | 155 µM | –
CCN(C(=O)N[C@@H](Cc1ccccc1)C(=O)N[C@@H](CC(C)C)C(=O)NC)c1ccccc1 | > 200 | 195 µM | –
O=C(Nc1ccc(Cl)c(Cl)c1)C(=O)Nn1c(=S)[nH]c2ccccc2c1=O | > 437 | 257 µM | –
COc1ccc(CN(Cc2ccc(OC)cc2)C(=O)CC2(O)C=CCC2)cc1 (centres undefined) | > 200 | 75.9 µM | –
CC1C(N2CCCCC2)N(C(=O)c2ccccc2)SC12c1ccccc1-c1ccccc12 (centres undefined) | > 42.7 | > 42.7 µM | –
CC1CCCC2(O1)OC1CC(=O)OC1C1=C2C(=O)c2ccccc2C1=O (centres undefined) | > 87.1 | 0.417 µM | –
Cc1ccc(S(=O)(=O)CN2C(=O)C(c3ccccc3)(c3ccccc3)C23OC(c2ccc(Cl)cc2)=CC3=O)cc1 (centres undefined) | > 200 | > 200 µM | –
O=C(Nc1ccccc1)c1cc(S(=O)(=O)Nc2n[nH]c(=O)n2-c2ccccc2)c(S)cc1Cl | 89.1 | > 200 µM | –
COC(=O)c1cc(C(=CCC(=O)N[C@@H]2CC[C@@]3(C)[C@@H](CC[C@@H]4[C@@H]3CC[C@]3(C)[C@@H]([C@H](C)CCCC(C)C)CC[C@@H]43)C2)c2cc(Cl)c(OC)c(C(=O)OC)c2)cc(Cl)c1OC | > 200 | > 200 µM | –
CCOC(=O)C1/C(=N/N)CN2CCc3c([nH]c4ccccc34)C12C(=O)OCC (centres undefined) | > 158 | 145 µM | –
COc1cc2cc3c4cc(OC)c(OC)cc4cc(C)[n+]3cc2cc1OC | – | – | inactive
O=c1[nH]cc(N=Nc2ccc(S(=O)(=O)Nc3nccs3)cc2)cc1O | > 195 | 170 µM | –
CC(C)(C)c1ccc(-c2nc3ccc(Cl)cc3c(=O)o2)cc1 | > 200 | 9.33 µM | –
Cc1ccc(C2(C(=O)O)CCCN2)cc1 (centres undefined) | > 200 | > 200 µM | –

SMILES | EC50 [µM] | IC50 | outcome
CSc1cnc2ccccc2c1Sc1c[nH]c2ccccc2c1=O | > 14.8 | 13.2 µM | –
O=C1NC(N2CCCCC2)=N/C1=C\c1ccccc1 | > 200 | > 200 µM | –
S=C(Nc1ccccn1)Nc1ccccc1Cl | > 200 | 123 µM | –
O=C(Nc1nccs1)c1c(O)nc2sccn2c1=O | > 200 | > 200 µM | –
CC(=O)c1sc(Nc2ccc(Cl)c(Cl)c2)nc1C | – | – | inactive
Cc1cn(C2CC(OC=O)C(CO)O2)c(=O)[nH]c1=O (centres undefined) | > 5750 | 61.7 µM | –
O=[p+]1c2ccccc2[nH]c2ccccc21 | > 200 | 56.2 µM | –
Oc1ccc(/C=C\c2cnccn2)cc1 | > 251 | 33.9 µM | –
CC1=C2OCS(=O)C2C2C(=O)N(c3ccccc3)C(=O)C2C1 (centres undefined) | > 794 | 501 µM | –
C/C(=N/NC(=O)c1ccccc1Nc1ccccc1C(=O)N/N=C(\C)c1ccc(C)cc1)c1ccc(C)cc1 | > 20 | 8.91 µM | –
COc1cc(N(CCC#N)CCC#N)ccc1/C(N=Nc1ccc(Cl)cc1)=N/NC(=O)c1cc(Br)ccc1O | > 100 | 17.4 µM | –
[N-]=[N+]=C(C(=O)C(=[N+]=[N-])C(=O)c1ccccc1)C(=O)c1ccccc1 | > 112 | > 112 µM | –
O=C(ON=C1c2ccccc2C(Br)C(Br)c2ccccc21)c1cc([N+](=O)[O-])cc([N+](=O)[O-])c1 (centres undefined) | > 200 | 0.851 µM | –
C[s+]1c2ccccc2c2ccccc21 | > 22.9 | 18.6 µM | –
CC1CCN(c2nnc(Cl)cc2C(=O)c2ccccc2)CC1 | > 200 | 52.5 µM | –
O=c1[nH]c2ccccc2c(O)c1N=Nc1cccc(C(F)(F)F)c1 | > 200 | > 200 µM | –
NNC(=O)CC(=O)Nc1ccc(Cl)cc1 | > 200 | 112 µM | –
O=C(CC(C(=O)c1cccs1)c1ccsc1)c1ccc(Cl)cc1 (centres undefined) | > 200 | 52.5 µM | –
COC(=O)[C@](C)(Cc1ccccc1)NC(=O)[C@@H](C)N1[C@@H](c2ccccc2)COC1(C)C | > 200 | > 200 µM | –
CCOC(=O)C(O)(NC(=O)NC(O)(C(=O)OCC)C(F)(F)F)C(F)(F)F (centres undefined) | > 200 | > 200 µM | –
CCC(C)NC1=NCC(C)S1 (centres undefined) | > 200 | > 200 µM | –
CC(C)C1CC(CO)(CNc2cc(Cl)nc(N)n2)C1 (centres undefined) | > 20 | 19.5 µM | –

SMILES | EC50 [µM] | IC50 | outcome
CS(=O)(=O)N1CC(CCl)c2ccc(S)cc21 (centres undefined) | – | – | inactive
Cn1c(=O)nc2n(-c3cc(C(F)(F)F)cc(C(F)(F)F)c3)c3ccccc3nc-2c1=O | – | – | inactive
CCC1S(=O)(=O)OCCOS1(=O)=O | > 1070 | 64.6 µM | –
O=C(O)c1ccc(Nc2nc3ccccc3nc2-c2cccs2)cc1 | > 200 | 60.3 µM | –
CSc1scc2c1/C(=N/NC(N)=O)CCC2 | > 200 | 91.2 µM | –
O=C(O)C1CCCN1C(=O)c1ccccn1 (centres undefined) | > 200 | > 200 µM | –
COc1cc2c(=O)c3ccccc3oc2c(O)c1OC | > 200 | > 200 µM | –
CCc1c(C)c2cc3[nH]c(cc4nc(cc5nc(cc1[nH]2)C(C)=C5CCC(=O)OC)C(CCC(=O)OC)=C4C)c(C)c3CC | – | – | inactive
O=C1c2sc(-c3ccc(F)cc3)cc2-n2cccc21 | > 200 | 120 µM | –
CSC1=NN(C)C2(CCCCC2)C(=O)N1 | 13.8 | 575 µM | –
Cc1c(Cl)c(=O)oc2cc(O)ccc12 | > 324 | 174 µM | –
C[P+]1(c2ccccc2)CCC(N)=C(C#N)C1 (centres undefined) | > 1070 | > 1070 µM | –
O=[N+]([O-])c1ccccc1S(=O)(=O)Nc1ccccc1 | – | – | inactive
O=c1onc(Nc2ccccc2)n1-c1ccccc1 | > 200 | 129 µM | –
CCOC(=O)C1=C(C)N(NC(=O)c2ccccc2)C2(O)CCCC12C(=O)OCC (centres undefined) | > 447 | 245 µM | –
CCCCCCCCCCCCCCCCCC(=O)NCCCNCCCNC(=O)CCCCCCCCCCCCCCCCC | > 12.6 | > 12.6 µM | –
O=C1OCc2cc3cc4c(cc3c(-c3ccc5c(c3)OCO5)c21)OCO4 (tested in a mixture with another compound) | – | – | inactive
CN(C)CC/[N+]([O-])=C(/c1ccccc1)C12CC3CC(CC(C3)C1)C2 | – | – | inactive
S=C(Nc1ccc(Br)cn1)NC12CC3CC(CC(C3)C1)C2 | > 200 | 69.2 µM | –
COC(=O)NCC(OCc1cc2c(cc1I)OCO2)C1=CCCCC1 (centres undefined) | > 29.5 | > 29.5 µM | –
CSc1c(C(=O)Nc2ccc(C)cc2)c(N)nn1-c1ccccc1 | > 200 | > 200 µM | –
Cc1nc(-n2nc(-c3ccccc3)cc2-c2ccccc2)sc1C(=O)CC(=O)C(=O)Nc1ccc(Cl)c(Cl)c1 | > 45.7 | > 45.7 µM | –

SMILES | EC50 [µM] | IC50 | outcome
COc1ccc(NC(=O)C(=O)/C=C(\O)c2ccccc2)cc1 | > 200 | 9.33 µM | –
Cc1cccc(N=N/C(=N\NC(=O)c2cc(Cl)ccc2O)c2ccc(N(CCC#N)CCC#N)cc2C)c1 | > 200 | 30.9 µM | –
COC(=O)/C(=C\c1ccco1)P(=O)(OC)OC | > 200 | 191 µM | –
O=C(O)[C@@H]1CSC(c2ccc(Cl)cc2)N1 (some centres undefined) | > 200 | > 200 µM | –
CCOC(=O)Cc1oc2c(C(C)=O)c(O)c(C)c(O)c2c1C | > 200 | 81.3 µM | –
COC1(CC[C@@H](C)COC2OC(CO)C(O)C(O)C2O)O[C@H]2C[C@H]3[C@@H]4CC=C5C[C@@H](OC6OC(CO)C(OC7OC(C)C(O)C(O)C7O)C(O)C6OC6OC(C)C(O)C(O)C6O)CC[C@]5(C)[C@H]4CC[C@]3(C)[C@H]2[C@@H]1C (some centres undefined) | > 200 | 2.57 µM | –
COC1/C=C/C=C/C=C/CC(OC(=O)C(C)NC(=O)C2CCCCC2)C(C)C(O)/C(C)=C\CCc2c(O)c(cc3c2SCC(=O)N3)NC(=O)C1 (centres undefined) | > 2 | 0.229 µM | –
CCN(CC)C(=O)c1c2nc3c(C(=O)N(CC)CC)ccc(C)c3oc-2c(C)c(=O)c1N | > 200 | 83.2 µM | –
CCOC(=O)/C(=N/Nc1ccc(C)cc1)N1C(=S)C=C(C)NN(C)C1=S | > 200 | > 200 µM | –
O=C1C=C2C=CC3CC2(O1)C1CCCCN31 (centres undefined) | > 1150 | 8.91 µM and 5.37 µM | –
CN(C)CCCn1c2c(c3ccccc31)CCCCCC2 | > 200 | 31.6 µM | –
O=C(CCn1[nH]c(=O)c(Cl)c(Cl)c1=O)NO | > 933 | 832 µM | –
Cc1nc2nn[nH]n2c(=O)c1CCO | > 200 | > 200 µM | –
C=C1CCC(OC(C)=O)C2(C)C(OC(C)=O)CC3OC3(C)C2C(OC(C)=O)C2C(C)C(=O)OC2C1Cl (centres undefined) | > 200 | > 200 µM | –
N#Cc1[nH]c(=O)n(-c2ccc(Cl)cc2)c1N | > 200 | > 200 µM | –
C=C(Cn1cnc2c(N)ncnc21)C(=O)OCC | – | – | inactive
O=C(c1ccccc1)c1ccc2cccc(O)c2n1 | > 75.9 | 50.1 µM | –
COc1ccc(C2OC2C(=O)C23CC4CC(CC(C4)C2)C3)cc1 (centres undefined) | > 200 | 52.5 µM | –
O=C(OCCN1CCCC12CCCCC2)C(c1ccccc1)C1CCCC1 (centres undefined) | > 200 | 7.76 µM | –
